Here are results for four compounds from US12262725B2, “Improving taste profile of orange juice” (SYMRISE AG, priority 2015, dated 2025).

Holding throughout (assay type): in vivo
A short description of test [1]: Masking the perception of the acid and the bitterness in orange juice; panelists rate sweet, bitter and sour on a 0-10 scale. The note with it: for Assessment (0-10) Bitter / Assessment (0-10) Sour / Assessment (0-10) Sweet: scale 0-10. An excerpt: The panelists (n=6-8) thereby evaluate the 3 attributes “sweet”, “bitter” and “sour” on an unstructured scale of 0 (no taste) to 10 (strong taste). In one sample, the panelists receive the orange juice alone, in a further sample, they received the orange juice which was supplemented with an amount of neoflavonoids as listed in one of the tables. Thereby, the order is arbitrary and not known to the panelists before.
In the following Tables 1A to 1D, the results of the evaluations are summed up.

The nature of test [2]: Masking of typical bitter substances from citrus products; bitterness rated by a group of experts. The conditions noted are these: for Assessment Bitter (0-10) With neoflavonoid: amount of neoflavonoid not given; for Relative masking (bitter): with vs without neoflavonoid. An excerpt:
Masking of Typical Bitter Substances from Citrus Products
For quantifying the reduction (i.e. the masking or the decrease) of the bitter impression in a sample, the bitterness of a solution containing the bitter substances named in the following Table 2 in column 1 were each compared with a sample, which contained the corresponding bitter substance and additionally the respectively specified amount of a neoflavonoid (column 2) by a group of experts (classification: 1 [not bitter] to 10 [extremely bitter]). For the analysis, i. e. the calculation of the reduction (in %) of the bitter impression, the respective average values of the assessments of the group of experts were used.

Test [3] is described as follows: Masking of the perception of the acid in citrus containing carbonated drinks; panelists rate sour on a 0-10 scale. An excerpt: Masking of the Perception of the Acid in Citrus Containing Carbonated Drinks
For quantifying the reduction (i. e. the masking or the decrease) of the perception of the acid in a sample, the panelists (n=6-8) assess the attribute “sour” on a non-structured scale from 0 (no taste)-10 (strong taste). The panelists receive in one sample the citrus/-lime soft drink reduced in sugar alone, in a further sample the soft drink, to which an amount of neoflavonoids specified in Table 3 has been added. Thereby, the order is arbitrary and not known to the panelists before. In the following Table, the results of the evaluations are summed up.

The mark [4] stands for this setting: HLB Hamlin orange juice, 15 ppm neoflavonoid vs juice alone.
[5] abbreviates: Orange juice comprising 7.8 ppm limonin, 10 ppm neoflavonoid vs juice alone.
The mark [6] stands for this setting: Orange juice comprising 7.8 ppm limonin, 10 ppm neoflavonoid, n=6-8.
Setting [7] is: Orange juice, oranges infected with HLB from early ripening Hamlin March 2014, 15 ppm neoflavonoid, n=6-8.
The mark [8] stands for this setting: Trial 1B, orange juice comprising 7 ppm limonin, 20 ppm neoflavonoid vs juice alone.
Where [9] appears, read: Trial 1B, orange juice comprising 7 ppm limonin, 20 ppm neoflavonoid.
Setting [10] is: Trial 1C, orange juice comprising 7 ppm limonin, 25 ppm neoflavonoid vs juice alone.
[11] abbreviates: Trial 1C, orange juice comprising 7 ppm limonin, 25 ppm neoflavonoid.
The mark [12] stands for this setting: Trial 1D, orange juice comprising 7 ppm limonin, 25 ppm neoflavonoid vs juice alone.
Setting [13] is: Trial 1D, orange juice comprising 7 ppm limonin, 25 ppm neoflavonoid.

Each structure is given as a SMILES string.

Take `COc1cc(C2CC(=O)Oc3cc(O)cc(O)c32)ccc1O` (stereo not shown) [1:1 mixture from component 9 and 10, 5,7-dihydroxy-4-(4-hydroxy-3-methoxy-phenyl)chroman-2-on]: in test [1] (setting [4]), the “Relative change Bitter” value is reported as −36%, the “Relative change Sour” value is −19% and the “Relative change Sweet” value is given as “+22%”. Besides, in test [1] (setting [5]), the “Relative change Bitter” value is −46%, the “Relative change Sour” value is listed as −35% and the “Relative change Sweet” value is listed as “+52%”. Further, in test [1] (setting [6]), the “Assessment (0-10) Bitter” value was determined as 2.5, the “Assessment (0-10) Sour” value is recorded as 3.5 and the “Assessment (0-10) Sweet” value amounted to 6.0. Also, in test [1] (setting [7]), the “Assessment (0-10) Bitter” value is given as 2.7, the “Assessment (0-10) Sour” value was 3.5 and the “Assessment (0-10) Sweet” value stood at 3.8. In test [2] (solution of 10 ppm limonin), the “Assessment Bitter (0-10) With neoflavonoid” value (from here on “Assessment Bitter”) was determined as 2.5 and the “Relative masking (bitter)” value is listed as −19%. In test [2] (solution of 50 ppm poncirin), the “Assessment Bitter” value came to 3.5 and the “Relative masking (bitter)” value is given as −29%. In test [2] (solution of 75 ppm naringin), the “Assessment Bitter” value is reported as 2.9 and the “Relative masking (bitter)” value is −24%.
For `O=C1CC(c2ccc(O)cc2)c2c(O)cc(O)cc2O1` (stereo not shown) [1:1 mixture from component 11 and 12, 5,7-dihydroxy-4-(4-hydroxyphenyl)-chroman-2-on], in test [1] (setting [8]), the “Relative change Bitter” value is −45%, the “Relative change Sour” value is −33% and the “Relative change Sweet” value is reported as “+13%”. In test [1] (setting [9]), the “Assessment (0-10) Bitter” value is reported as 2.8, the “Assessment (0-10) Sour” value amounted to 3.1 and the “Assessment (0-10) Sweet” value came out at 4.8. In addition, in test [2] (solution of 10 ppm limonin), the “Assessment Bitter” value was 2.8 and the “Relative masking (bitter)” value is listed as −38%. In test [2] (solution of 50 ppm poncirin), the “Assessment Bitter” value came to 3.6 and the “Relative masking (bitter)” value is −8%. Further, in test [2] (solution of 75 ppm naringin), the “Assessment Bitter” value was found to be 3.7 and the “Relative masking (bitter)” value is given as −18%.
As for `O=C1CC(c2ccc(O)cc2)c2ccc(O)cc2O1` (stereo not shown) [1:1 mixture from component 29 and 30, 7-hydroxy-4-(4-hydroxy-phenyl)-chroman-2-on], in test [1] (setting [10]), the “Relative change Bitter” value is −45%, the “Relative change Sour” value is recorded as −33% and the “Relative change Sweet” value is on record as “+13%”. In addition, in test [1] (setting [11]), the “Assessment (0-10) Bitter” value stood at 2.4, the “Assessment (0-10) Sour” value was 3.0 and the “Assessment (0-10) Sweet” value is on record as 5.3.
Consider `COc1cc(C2CC(=O)Oc3cc(O)cc(OC)c32)ccc1O` (stereo not shown) [1:1 mixture from component 41 and 42, 7-hydroxy-4-(4-hydroxy-3-methoxy-phenyl)-5-methoxy-chroman-2-on], for which, in test [3] (Carbonated soft drink (7° Brix, 0.2% citric acid), with vs without neoflavonoid, p < 0.1), the “Relative masking (sour)” value is given as −17%. Moreover, the “Assessment Sour (0-10) With neoflavonoid” value in test [3] (Carbonated soft drink (7° Brix, 0.2% citric acid, 0.0001% citrus oil, 0.0001% lime oil, 0.06% citrus aroma), n=6-8) stood at 3.4. For the same compound, in test [1] (setting [12]), the “Relative change Bitter” value is given as −43%, the “Relative change Sour” value is listed as −13% and the “Relative change Sweet” value is recorded as “+43%”. Also, in test [1] (setting [13]), the “Assessment (0-10) Bitter” value is on record as 2.7, the “Assessment (0-10) Sour” value was found to be 3.7 and the “Assessment (0-10) Sweet” value was found to be 5.9. In test [2] (solution of 100 ppm naringin), the “Assessment Bitter” value amounted to 3.7 and the “Relative masking (bitter)” value was −15%.
